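Step 1: Grow cells in 96-well plates. Step 2: Expose to compound for 48 hours at 5 concentrations. Step 3: Interpolate endpoints linearly; if unreached, use highest concentration. At the GI50, growth is halved.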 Calls of active or inactive are those of the source. No stated cut-off is given here; in the data, active = GI50 up to about 1.1 µM and inactive = higher.
What was measured:
Experiment in all cases: NCI tumour cell line growth inhibition, 48 h
786-0 = system: 786-0
A549 = system: A549
CAKI-1 = system: CAKI-1
CCRF-CEM = system: CCRF-CEM
COLO 205 = system: COLO 205
DU-145 = system: DU-145
IGROV-1 = system: IGROV-1
M14 = system: M14
MOLT-4 = system: MOLT-4
Malme-3M = system: Malme-3M
NCI-H23 = system: NCI-H23
NCI-H460 = system: NCI-H460
OVCAR-5 = system: OVCAR-5
PC-3 = system: PC-3
RPMI-8226 = system: RPMI-8226
SK-MEL-28 = system: SK-MEL-28
SN12C = system: SN12C
SR = system: SR
SW-620 = system: SW-620
TK-10 = system: TK-10

Row | SMILES | GI50 (786-0) | GI50 (A549) | GI50 (CAKI-1) | GI50 (CCRF-CEM) | GI50 (COLO 205) | GI50 (DU-145) | GI50 (IGROV-1) | GI50 (M14) | GI50 (MOLT-4) | GI50 (Malme-3M) | GI50 (NCI-H23) | GI50 (NCI-H460) | GI50 (OVCAR-5) | GI50 (PC-3) | GI50 (RPMI-8226) | GI50 (SK-MEL-28) | GI50 (SN12C) | GI50 (SR) | GI50 (SW-620) | GI50 (TK-10)
1 | O=C1NCCCc2nonc21 | > 100 µM (inactive) | > 100 µM (inactive) | > 100 µM (inactive) | > 100 µM (inactive) | > 100 µM (inactive) | > 100 µM (inactive) | > 100 µM (inactive) | > 100 µM (inactive) | > 100 µM (inactive) | > 100 µM (inactive) | > 100 µM (inactive) | > 100 µM (inactive) | > 100 µM (inactive) | > 100 µM (inactive) | > 100 µM (inactive) | > 100 µM (inactive) | > 100 µM (inactive) | > 100 µM (inactive) | > 100 µM (inactive) | > 100 µM (inactive)
2 | c1nnc(NCNc2nncs2)s1 | 46.8 µM (inactive) | 23.6 µM (inactive) | 9.48 µM (inactive) | 61.1 µM (inactive) | 56.1 µM (inactive) | 16 µM (inactive) | 49.1 µM (inactive) | 43.1 µM (inactive) | 29.6 µM (inactive) | > 100 µM (inactive) | 47.9 µM (inactive) | 6.18 µM (inactive) | 79.3 µM (inactive) | 57.1 µM (inactive) | 72.6 µM (inactive) | 64.4 µM (inactive) | 30.9 µM (inactive) | 36.8 µM (inactive) | 45.8 µM (inactive) | 86.9 µM (inactive)
3 | Oc1ccc(C(c2ccc(O)cc2)c2ccc(O)cc2)cc1 | 17.6 µM (inactive) | 35.9 µM (inactive) | 16.1 µM (inactive) | 33.6 µM (inactive) | 7.16 µM (inactive) | 27.4 µM (inactive) | 14.3 µM (inactive) |  | 20.6 µM (inactive) | 16.5 µM (inactive) | 19.2 µM (inactive) | 18.8 µM (inactive) |  | 24 µM (inactive) | 27.2 µM (inactive) | 19.3 µM (inactive) | 20.3 µM (inactive) | 37.1 µM (inactive) | 26.8 µM (inactive) | 22.8 µM (inactive)
4 | Nc1ccc(I)cn1 | > 100 µM (inactive) | > 100 µM (inactive) | > 100 µM (inactive) | > 100 µM (inactive) | > 100 µM (inactive) | > 100 µM (inactive) | > 100 µM (inactive) | > 100 µM (inactive) | > 100 µM (inactive) | > 100 µM (inactive) | > 100 µM (inactive) | > 100 µM (inactive) | > 100 µM (inactive) | > 100 µM (inactive) | > 100 µM (inactive) | > 100 µM (inactive) | > 100 µM (inactive) | > 100 µM (inactive) | > 100 µM (inactive) | 
5 | O=C(/C=C/c1cccc(Oc2ccccc2)c1)NCc1ccc(C(=O)NCc2ccccc2)cc1 | 29 µM (inactive) | > 100 µM (inactive) | 43.8 µM (inactive) | > 100 µM (inactive) | > 100 µM (inactive) | > 100 µM (inactive) | 79.8 µM (inactive) | > 100 µM (inactive) | > 100 µM (inactive) | 41.3 µM (inactive) | 31 µM (inactive) | > 100 µM (inactive) | > 100 µM (inactive) | > 100 µM (inactive) | > 100 µM (inactive) | > 100 µM (inactive) | > 100 µM (inactive) | > 100 µM (inactive) | > 100 µM (inactive) | 46.5 µM (inactive)
6 | O=C(Nc1ccc2ccccc2c1)Nn1cnnc1 | > 100 µM (inactive) | > 100 µM (inactive) | > 100 µM (inactive) | > 100 µM (inactive) | > 100 µM (inactive) | > 100 µM (inactive) | > 100 µM (inactive) | > 100 µM (inactive) | > 100 µM (inactive) | > 100 µM (inactive) | > 100 µM (inactive) | > 100 µM (inactive) | > 100 µM (inactive) | > 100 µM (inactive) | > 100 µM (inactive) | > 100 µM (inactive) |  | > 100 µM (inactive) | > 100 µM (inactive) | > 100 µM (inactive)
7 | CCOC(=O)c1cc(Br)c(-c2cc(C)co2)[nH]1 | > 100 µM (inactive) | > 100 µM (inactive) | > 100 µM (inactive) | > 100 µM (inactive) | > 100 µM (inactive) | > 100 µM (inactive) | 66.1 µM (inactive) | > 100 µM (inactive) | 54.6 µM (inactive) | > 100 µM (inactive) | > 100 µM (inactive) | > 100 µM (inactive) | > 100 µM (inactive) | > 100 µM (inactive) | > 100 µM (inactive) | > 100 µM (inactive) | > 100 µM (inactive) | 31.8 µM (inactive) | > 100 µM (inactive) | 
8 | CC(=O)Oc1c2c(c(CC=C(C)C)c3c1C(=O)C1=C[C@@H]4CC5C(C)(C)OC(C/C=C(/C)C(=O)O)(C4=O)[C@@]15O3)OC(C)(CCC=C(C)C)C=C2 (some centres undefined) | 0.0989 µM (active) | 0.188 µM (active) | 0.174 µM (active) | 0.101 µM (active) | 0.195 µM (active) | 0.287 µM (active) | 0.0998 µM (active) | 0.282 µM (active) | 0.0769 µM (active) | 0.29 µM (active) | 0.197 µM (active) | 0.486 µM (active) | 0.361 µM (active) | 0.244 µM (active) | 0.184 µM (active) | 0.188 µM (active) | 0.181 µM (active) | 0.258 µM (active) | 0.091 µM (active) | 0.134 µM (active)
9 | C=C(C)[C@@H]1CCc2c(c(C)cc(O)c(=O)c2O)C1 | 1.41 µM (inactive) | 1.17 µM (inactive) | 0.13 µM (active) | 0.412 µM (active) | 1.63 µM (inactive) | 2.18 µM (inactive) | 0.179 µM (active) | 1.47 µM (inactive) | 1.4 µM (inactive) | 3.43 µM (inactive) | 2.58 µM (inactive) | 0.102 µM (active) | > 73.1 µM (inactive) | 3.85 µM (inactive) | 3.57 µM (inactive) | 4.63 µM (inactive) | 0.363 µM (active) | 0.515 µM (active) | 0.643 µM (active) | 13.1 µM (inactive)
10 | S=C1CSc2c(cnc3ccccc23)N1 | > 100 µM (inactive) | > 100 µM (inactive) | 78.7 µM (inactive) | > 100 µM (inactive) | > 100 µM (inactive) | > 100 µM (inactive) | > 100 µM (inactive) | > 100 µM (inactive) | > 100 µM (inactive) | > 100 µM (inactive) | > 100 µM (inactive) | 56.6 µM (inactive) | > 100 µM (inactive) | 68.4 µM (inactive) | > 100 µM (inactive) | > 100 µM (inactive) | > 100 µM (inactive) | > 100 µM (inactive) |  | 35.1 µM (inactive)
11 | COc1ccc2nc3cc(Cl)ccc3c(NCCCN(C)CCCNc3ccc4ncn5c6ccccc6c(=O)c3c45)c2c1 | 0.0333 µM (active) | 0.0321 µM (active) | 0.184 µM (active) | 0.228 µM (active) | 0.0391 µM (active) | 0.587 µM (active) | 0.0374 µM (active) | 0.558 µM (active) | 0.00264 µM (active) | 2.69 µM (inactive) | 1.18 µM (inactive) | 0.0157 µM (active) | 3.09 µM (inactive) | 0.547 µM (active) | 0.0656 µM (active) | 2.61 µM (inactive) | 0.0302 µM (active) | 0.019 µM (active) | 0.00573 µM (active) | 0.148 µM (active)
12 | COC(=O)C1CN=CN1CCc1ccccc1 (centres undefined) | > 100 µM (inactive) | > 100 µM (inactive) | > 100 µM (inactive) | > 100 µM (inactive) | > 100 µM (inactive) | > 100 µM (inactive) | > 100 µM (inactive) | > 100 µM (inactive) | > 100 µM (inactive) | > 100 µM (inactive) | > 100 µM (inactive) | > 100 µM (inactive) | > 100 µM (inactive) | > 100 µM (inactive) | > 100 µM (inactive) | > 100 µM (inactive) |  | > 100 µM (inactive) | > 100 µM (inactive) | > 100 µM (inactive)
13 | CCOc1cc(NC(C)=O)ccc1C(=O)N/N=C/c1ccco1 | > 100 µM (inactive) |  | 76.6 µM (inactive) | 39.3 µM (inactive) | 44.6 µM (inactive) | > 100 µM (inactive) | 94 µM (inactive) |  | 20.9 µM (inactive) | > 100 µM (inactive) | > 100 µM (inactive) | 24.5 µM (inactive) | > 100 µM (inactive) | > 100 µM (inactive) | 78.3 µM (inactive) | > 100 µM (inactive) | > 100 µM (inactive) | 9.95 µM (inactive) | > 100 µM (inactive) | > 100 µM (inactive)
14 | Cc1cc(N=C2C=C(Br)C(=O)C(Br)=C2)cc(CN(CC(=O)O)CC(=O)O)c1O | > 100 µM (inactive) | > 100 µM (inactive) | > 100 µM (inactive) | > 100 µM (inactive) | > 100 µM (inactive) | > 100 µM (inactive) | > 100 µM (inactive) | > 100 µM (inactive) | > 100 µM (inactive) | > 100 µM (inactive) | > 100 µM (inactive) | > 100 µM (inactive) | > 100 µM (inactive) | > 100 µM (inactive) | > 100 µM (inactive) | > 100 µM (inactive) | > 100 µM (inactive) | > 100 µM (inactive) | > 100 µM (inactive) | 
15 | Cc1cccc2oc3c(CC(=O)O)cccc3c(=O)c12 | > 100 µM (inactive) | > 100 µM (inactive) | > 100 µM (inactive) | > 100 µM (inactive) | > 100 µM (inactive) | > 100 µM (inactive) | > 100 µM (inactive) | > 100 µM (inactive) | > 100 µM (inactive) | > 100 µM (inactive) | > 100 µM (inactive) | > 100 µM (inactive) |  | > 100 µM (inactive) | > 100 µM (inactive) | > 100 µM (inactive) | > 100 µM (inactive) | > 100 µM (inactive) | > 100 µM (inactive) | > 100 µM (inactive)

— ChEMBL document CHEMBL1201862, “PubChem BioAssay data set” (2004)
